Where a name gives a salt, the structure may show the parent alone. Read-outs that look alike come from different tables or passages of the source.
What was measured:
[1] = target: PI3Kδ (p110δ/p85α) Recombinant Human Protein (Homo sapiens (Human), UniProt O00329); experiment: PI3Kδ scintillation proximity assay; format: biochemical; settings: read-out: P13Kδ IC50
Description: PI3Kδ Scintillation Proximity Assay
[γ-^33P]ATP (10 mCi/mL) and Wheat Germ Agglutinin (WGA) YSi SPA Scintillation Beads was purchased from Perkin-Elmer (Waltham, Mass.). […] PI3Kδ (p110δ/p85α) Recombinant Human Protein was purchased from Eurofins (St Charles, Mo.). ATP, MgCl2, DTT, EDTA, MOPS and CHAPS were purchased from SigmaAldrich (St. Louis, Mo.).
The kinase reaction was conducted in polystyrene 384-well Greiner Bio-one white plate from Thermo Fisher Scientific in a final volume of 25 μL. Inhibitors were first diluted serially in DMSO and added to the plate wells before the addition of other reaction components. The final concentration of DMSO in the assay was 2%. The PI3Kδ assay was carried out at room temperature in 20 mM MOPS, pH 6.7, 10 mM MgCl2, 5 mM DTT and CHAPS 0.03%. Reactions were initiated by the addition of ATP, the final reaction mixture consisted of 20 μM PIP2, 2 μM ATP, 0.5 μCi [γ-^33P] […] The final concentration of SPA beads is 1.0 mg/mL. After the plate sealing, plates were shaken overnight at room temperature and centrifuged at 1500 rpm for 10 min, the radioactivity of the product was determined by scintillation counting on Topcount (PerkinElmer). IC50 determination was performed by fitting the curve of percent of the solvent control activity versus the log of the inhibitor concentration using the GraphPad Prism 6.0 software.

[2] = target: PI3Kγ (p110γ) Recombinant Human Protein (Homo sapiens (Human), UniProt P48736); experiment: PI3K-γ scintillation proximity assay; format: biochemical
PI3Kγ (p110γ) Recombinant Human Protein, sequence (P48736 whole entry): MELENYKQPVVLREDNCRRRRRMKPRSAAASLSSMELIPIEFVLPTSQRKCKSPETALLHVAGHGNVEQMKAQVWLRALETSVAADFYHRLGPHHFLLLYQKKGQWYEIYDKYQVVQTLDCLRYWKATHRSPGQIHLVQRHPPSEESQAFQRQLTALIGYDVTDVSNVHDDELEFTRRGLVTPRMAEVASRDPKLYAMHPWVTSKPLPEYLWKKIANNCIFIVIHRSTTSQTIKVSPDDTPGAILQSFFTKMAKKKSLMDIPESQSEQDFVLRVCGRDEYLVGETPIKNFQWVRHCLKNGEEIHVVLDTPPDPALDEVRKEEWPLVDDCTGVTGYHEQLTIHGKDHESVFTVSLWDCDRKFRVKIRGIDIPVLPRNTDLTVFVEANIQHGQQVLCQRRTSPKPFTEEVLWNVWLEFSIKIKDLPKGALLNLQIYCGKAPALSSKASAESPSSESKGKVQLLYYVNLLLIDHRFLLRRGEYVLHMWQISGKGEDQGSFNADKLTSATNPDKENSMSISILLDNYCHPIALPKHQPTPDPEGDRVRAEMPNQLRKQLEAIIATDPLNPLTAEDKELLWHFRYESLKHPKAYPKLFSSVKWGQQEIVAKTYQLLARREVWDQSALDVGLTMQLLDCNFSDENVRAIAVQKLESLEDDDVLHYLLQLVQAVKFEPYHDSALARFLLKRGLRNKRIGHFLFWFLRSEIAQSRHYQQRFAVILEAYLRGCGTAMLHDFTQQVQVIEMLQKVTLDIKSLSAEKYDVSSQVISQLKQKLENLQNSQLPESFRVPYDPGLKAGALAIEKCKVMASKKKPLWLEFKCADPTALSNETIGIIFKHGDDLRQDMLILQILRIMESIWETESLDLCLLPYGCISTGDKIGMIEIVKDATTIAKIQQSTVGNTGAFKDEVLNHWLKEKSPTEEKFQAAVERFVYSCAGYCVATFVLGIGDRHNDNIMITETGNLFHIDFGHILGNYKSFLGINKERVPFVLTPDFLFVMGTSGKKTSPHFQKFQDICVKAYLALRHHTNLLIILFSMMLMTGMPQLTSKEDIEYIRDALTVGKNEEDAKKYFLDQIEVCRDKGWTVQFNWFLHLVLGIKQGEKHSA
Excerpt: Example B. PI3K-γ Scintillation Proximity Assay
[γ-^33P]ATP (10 mCi/mL) and Wheat Germ Agglutinin (WGA) YSi SPA Scintillation Beads was purchased from Perkin-Elmer (Waltham, Mass.). Lipid kinase substrate, D-myo-Phosphatidylinositol 4,5-bisphosphate (PtdIns(4,5)P2)D (+)-sn-1,2-di-O-octanoylglyceryl, 3-O-phospho linked (PIP2), CAS 204858-53-7, was purchased from Echelon Biosciences (Salt Lake City, Utah). PI3Kγ (p110γ) Recombinant Human Protein was purchased from Life technology (Grand Island, N.Y.). ATP, MgCl2, DTT, EDTA, MOPS and CHAPS were purchased from Sigma-Aldrich (St. Louis, Mo.).
The kinase reaction was conducted in polystyrene 384-well Greiner Bio-one white plate from Thermo Fisher Scientific in a final volume of 25 μL. Inhibitors were first diluted serially in DMSO and added to the plate wells before the addition of other reaction components. The final concentration of DMSO in the assay was 2%. The PI3Kγ assay was carried out at room temperature in 20 mM MOPS, pH 6.7, 10 mM MgCl2, 5 mM DTT and CHAPS 0.03%. Reactions were initiated by the addition of ATP, the final reaction mixture consisted of 20 μM PIP2, 2 μM ATP, 0.5 μCi [γ-^33P] ATP, 13 nM PI3Kγ. Reactions were incubated for 120 min and terminated by the addition of 40 μL SPA beads suspended in quench buffer: 163 mM potassium phosphate pH 7.8, 20% glycerol, 25 mM EDTA. The final concentration of SPA beads is 1.0 mg/mL. After the plate sealing, plates were shaken overnight at room temperature and centrifuged at 1500 rpm for 10 min, the radioactivity of the product was determined by scintillation counting on Topcount (Perkin-Elmer). IC50 determination was performed by fitting the curve of percent of the solvent control activity versus the log of the inhibitor concentration using the GraphPad Prism 6.0 software.

[3] = system: Phosphorylated Ribosomal Protein S6 (RPS6) in THP-1 cells; experiment: THP-1 RPS6 ELISA assay; format: cell-based; settings: Homo sapiens, THP-1, THP-1 cells, 10 nM MCP-1 stimulation, phospho-RPS6 ELISA; read-out: PI3Kγ_THP1_RPS6_ELISA IC50
Description: Example A. THP-1 RPS6 ELISA Assay
To measure the Phosphorylated Ribosomal Protein S6 (RPS6) in cell lysates, THP-1 cells (Human Acute Monocytic Leukemia) are purchased from ATCC (Manassas, Va.) and maintained in RPMI with 10% FBS (Gibco/Life Technologies, Carlsbad, Calif.). For the assay, THP-1 cells are serum starved overnight in RPMI, then plated in RPMI (2×10^5 cells/well in 90 μL) into 96-well flat-bottom tissue culture treated plates (Corning, Corning, N.Y.), in the presence or absence of a concentration range of test compounds. Covered plates are incubated for 2 hours at 37° C., 5% CO2 then treated with or without 10 nM MCP-1(MYBioSource, San Diego, Calif.) for 15 minutes at 37° C., 5% CO2. Plates are centrifuged at 1600 RPM and supernatants are removed. Cells are lysed in Lysis Buffer (Cell Signaling, Danvers, Mass.) with Protease Inhibitor (Calbiochem/EMD, Germany), PMSF (Sigma, St Louis Mo.), HALTS (Thermo Fisher, Rockford, Ill.) for 30 min on wet ice. Cell lysates are frozen at −80° C. before testing. The lysates are tested in the Human/Mouse/Rat Phospho-RPS6 ELISA (R&D Systems, Inc. Minn, Minn.). The plate is measured using a microplate reader (SpectraMax M5—Molecular Devices, LLC Sunnyvale, Calif.) set to 450 nm with a wavelength correction of 540. […]

[4] = 20 μM PIP2, 2 μM ATP, 3.4 nM PI3Kδ
[5] = 20 μM PIP2, 2 μM ATP, 13 nM PI3Kγ

PI3Kδ (p110δ/p85α) Recombinant Human Protein, sequence (O00329 whole entry): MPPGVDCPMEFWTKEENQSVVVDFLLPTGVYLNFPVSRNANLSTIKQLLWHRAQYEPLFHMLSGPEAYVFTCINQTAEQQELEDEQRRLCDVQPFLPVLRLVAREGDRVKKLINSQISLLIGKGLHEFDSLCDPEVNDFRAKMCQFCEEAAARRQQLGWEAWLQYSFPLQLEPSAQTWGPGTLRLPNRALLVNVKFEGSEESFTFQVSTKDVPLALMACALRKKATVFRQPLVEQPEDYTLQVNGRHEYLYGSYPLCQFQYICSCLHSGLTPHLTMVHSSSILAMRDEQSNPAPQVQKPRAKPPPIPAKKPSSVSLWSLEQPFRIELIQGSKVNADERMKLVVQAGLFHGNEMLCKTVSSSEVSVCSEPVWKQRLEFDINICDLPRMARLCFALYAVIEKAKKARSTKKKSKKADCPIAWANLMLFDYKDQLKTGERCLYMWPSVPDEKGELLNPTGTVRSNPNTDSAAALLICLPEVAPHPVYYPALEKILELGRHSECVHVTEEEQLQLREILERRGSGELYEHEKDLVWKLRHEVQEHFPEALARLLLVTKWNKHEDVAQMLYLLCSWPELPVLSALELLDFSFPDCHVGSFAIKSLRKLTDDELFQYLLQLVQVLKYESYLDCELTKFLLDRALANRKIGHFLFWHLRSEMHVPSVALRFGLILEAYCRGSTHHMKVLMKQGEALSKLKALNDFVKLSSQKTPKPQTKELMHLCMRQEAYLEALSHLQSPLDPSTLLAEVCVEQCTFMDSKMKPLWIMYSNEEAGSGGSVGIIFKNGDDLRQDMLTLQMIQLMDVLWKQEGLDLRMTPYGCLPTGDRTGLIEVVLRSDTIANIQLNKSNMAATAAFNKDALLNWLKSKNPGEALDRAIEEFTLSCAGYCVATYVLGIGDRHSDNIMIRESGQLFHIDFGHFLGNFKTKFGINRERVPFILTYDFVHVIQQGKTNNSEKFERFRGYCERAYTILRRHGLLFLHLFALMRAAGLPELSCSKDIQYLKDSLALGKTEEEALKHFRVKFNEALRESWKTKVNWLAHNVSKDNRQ
PI3Kδ (p110δ/p85α) Recombinant Human Protein, sequence (P27986 whole entry partner): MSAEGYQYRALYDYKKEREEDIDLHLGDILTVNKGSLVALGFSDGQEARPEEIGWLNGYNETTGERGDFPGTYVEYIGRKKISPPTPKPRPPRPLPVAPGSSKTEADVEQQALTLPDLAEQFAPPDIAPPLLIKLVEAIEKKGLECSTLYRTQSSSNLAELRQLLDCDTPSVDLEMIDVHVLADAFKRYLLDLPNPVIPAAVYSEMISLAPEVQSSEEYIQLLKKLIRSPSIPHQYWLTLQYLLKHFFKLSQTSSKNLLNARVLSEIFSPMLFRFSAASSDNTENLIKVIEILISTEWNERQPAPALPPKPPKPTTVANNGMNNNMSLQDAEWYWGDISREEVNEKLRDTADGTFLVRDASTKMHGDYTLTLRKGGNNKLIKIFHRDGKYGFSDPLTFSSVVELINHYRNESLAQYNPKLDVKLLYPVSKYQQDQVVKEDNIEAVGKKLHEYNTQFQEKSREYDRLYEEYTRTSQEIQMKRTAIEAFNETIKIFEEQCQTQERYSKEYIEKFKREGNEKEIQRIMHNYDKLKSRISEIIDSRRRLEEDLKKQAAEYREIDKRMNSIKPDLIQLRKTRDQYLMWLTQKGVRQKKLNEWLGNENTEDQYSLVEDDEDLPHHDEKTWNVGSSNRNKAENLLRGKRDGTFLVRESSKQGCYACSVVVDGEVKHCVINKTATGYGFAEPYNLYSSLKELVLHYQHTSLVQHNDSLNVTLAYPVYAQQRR

IC50 [1, 4] [µM] | IC50 [2, 5] [µM] | IC50 [3] [µM] | SMILES | IC50 [1] [µM] | IC50 [2] [µM]
< 0.1 | < 0.1 | – | Cc1ncc(-c2cn3c(-c4cc(C(O)(CO)C(F)(F)F)ccc4C)cnc3c(N)n2)o1 (single isomer, unassigned) [Example 68, 2-(3-(8-Amino-6-(2-methyloxazol-5-yl)imidazo[1,2-o]pyrazin-3-yl)-4-methylphenyl)-3,3,3-trifluoropropane-1,2-diol] | – | –
< 0.1 | < 0.1 | – | Cc1ccc(C(O)(C(N)=O)C(F)(F)F)cc1-c1cnc2c(N)nc(C(C)(C)O)cn12 (single isomer, unassigned) [Example 255, 2-(3-(8-Amino-6-(2-hydroxypropan-2-yl)imidazo[1,2-a]pyrazin-3-yl)-4-methylphenyl)-3,3,3-trifluoro-2-hydroxypropanamide trifluoroacetate salt (single enantiomer)] | – | –
0.1 to 0.5 | < 0.1 | – | Cc1ccc(C(O)(C(N)=O)C(F)(F)F)cc1-c1cnc2c(N)nc(C(=O)NC34CCC(O)(CC3)C4)cn12 (single isomer, unassigned) [Example 260, 8-Amino-3-(5-(3-amino-1,1,1-trifluoro-2-hydroxy-3-oxopropan-2-yl)-2-methylphenyl)-N-(4-hydroxybicyclo[2.2.1]heptan-1-yl)imidazo[1,2-a]pyrazine-6-carboxamide trifluoroacetate salt (single enantiomer)] | – | –
< 0.1 | < 0.1 | < 0.1 | Cc1ccc(C(C)(O)C(F)F)cc1-c1cnc2c(N)nc(-c3c[nH]nc3C)cn12 (stereo not drawn) [Example 47, 2-(3-(8-Amino-6-(3-methyl-1H-pyrazol-4-yl)imidazo[1,2-a]pyrazin-3-yl)-4-methylphenyl)-1,1-difluoropropan-2-ol, 1.2TFA] | – | –
– | – | – | Cc1ccc(C(O)(CO)C(F)(F)F)cc1-c1cnc2c(N)nc(-c3cnn(C)c3)cn12 (stereo not drawn) [Example 69, 2-(3-(8-Amino-6-(1-methyl-1H-pyrazol-4-yl)imidazo[1,2-a]pyrazin-3-yl)-4-methylphenyl)-3,3,3-trifluoropropane-1,2-diol trifluoroacetate salt] | < 0.1 | < 0.1
– | – | – | Cc1ncc(-c2cn3c(-c4cc(C(O)(CO)C(F)(F)F)ccc4C)cnc3c(N)n2)s1 (stereo not drawn) [Example 70, 2-(3-(8-Amino-6-(2-methylthiazol-5-yl)imidazo[1,2-a]pyrazin-3-yl)-4-methylphenyl)-3,3,3-trifluoropropane-1,2-diol trifluoroacetate salt] | < 0.1 | < 0.1
– | – | – | Cc1ccc(C(O)(CO)C(F)(F)F)cc1-c1cnc2c(N)nc(-c3cnco3)cn12 (stereo not drawn) [Example 71, 2-(3-(8-Amino-6-(oxazol-5-yl)imidazo[1,2-a]pyrazin-3-yl)-4-methylphenyl)-3,3,3-trifluoropropane-1,2-diol trifluoroacetate salt] | < 0.1 | < 0.1

Source: patent US11225486B2, “Tertiary alcohols as PI3K-γ inhibitors” (Incyte Corporation, priority 2017, dated 2022)
